{"source": "paper PMC6066978", "about": "“Chronic Intermittent Hypoxia-Induced Vascular Dysfunction in Rats is Reverted by N-Acetylcysteine Supplementation and Arginase Inhibition” (Frontiers in Physiology, 2018)", "molecular_target": "arginase", "experiment": "arginase activity (urea production, ISPF colorimetric) in human placental homogenate", "format": "biochemical"}
{"smiles": "N[C@@H](CCCCB(O)O)C(=O)O", "note": "[ABH, 2(S)-amino-6-boronohexanoic acid]", "values": [{"measurement": "Ki", "result": "4.78 ± 1.76", "unit": "µM"}]}
